Results published in patent US9150546B2, “Triazine derivative and pharmaceutical composition comprising the same” (SHIONOGI & CO., LTD., priority 2009, dated 2015).

Biological target: human P2X3 receptor (Homo sapiens (Human), UniProt P56373)
Experiment: P2X3 receptor inhibition, ATP-evoked Fluo-3 fluorescence (FDSS 3000)
Format: cell-based
Details: C6BU-1 cell transfected with human P2X3 receptor gene

Sequence of human P2X3 receptor (P56373 whole entry): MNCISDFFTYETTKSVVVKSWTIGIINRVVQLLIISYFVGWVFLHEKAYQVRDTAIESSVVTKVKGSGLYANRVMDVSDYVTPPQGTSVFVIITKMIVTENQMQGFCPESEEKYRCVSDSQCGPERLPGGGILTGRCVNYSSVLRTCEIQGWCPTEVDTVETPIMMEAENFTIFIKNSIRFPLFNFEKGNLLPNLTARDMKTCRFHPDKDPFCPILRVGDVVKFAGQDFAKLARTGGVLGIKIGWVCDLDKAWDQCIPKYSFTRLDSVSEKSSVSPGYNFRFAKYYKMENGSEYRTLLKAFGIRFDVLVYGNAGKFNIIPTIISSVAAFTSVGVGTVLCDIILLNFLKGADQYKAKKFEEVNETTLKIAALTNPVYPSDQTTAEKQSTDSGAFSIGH

Row | SMILES | IC50 [nM]
1 | COC(=O)C(C)(C)Cn1c(=O)[nH]/c(=N\c2ccc(OC(C)C)c(F)c2)n(Cc2ccc(C)cc2)c1=O [I-404] | 12
2 | CCC[S+]([O-])c1ccc(Nc2nc(=O)n(CCO)c(=O)n2Cc2ccc(Cl)cc2)cc1 (stereo not drawn) [I-385] | 908
3 | COC(=O)[C@@H](C)Cn1c(=O)[nH]/c(=N\c2ccc(OC(C)C)c(C)c2)n(CC2CCCCC2)c1=O [I-555] | 13
4 | Cc1ccc(Cn2c(Nc3cccc(C(F)(F)F)c3)nc(=O)n(C(C)(C)C)c2=O)cc1 [I-097] | 505
5 | CC(C)Oc1ccc(/N=c2\[nH]c(=O)n(C[C@H](C)C(=O)O)c(=O)n2Cc2ccc(Cl)cc2)cc1 [I-537] | 19
6 | COC(=O)CCn1c(=O)[nH]/c(=N\c2ccc(OC(C)C)c(F)c2)n(Cc2ccc(C)cc2)c1=O [I-409] | 12
7 | O=c1nc(Nc2cccc(OC(F)(F)F)c2)n(Cc2ccc(Cl)cc2)c(=O)n1CCO [I-309] | 357
8 | CC(C)(Cn1c(=O)[nH]/c(=N\c2cccc(Cl)c2)n(Cc2ccc(Cl)cc2)c1=O)C(=O)O [I-468] | 137
9 | O=c1nc(Nc2cccc(C(F)(F)F)c2)n(Cc2ccc(Cl)cc2)c(=O)n1CCCO [I-357] | 47
10 | CC(C)Oc1ccc(Nc2nc(=O)n(CCC(=O)N(C)C)c(=O)n2Cc2ccc(Cl)cc2)cc1F [I-297] | 45
11 | CC(C)Oc1ccc(Nc2nc(=O)n(Cc3ccccn3)c(=O)n2Cc2ccc(Cl)cc2)cc1F [I-300] | 25
12 | CC(C)Oc1ccc(/N=c2\[nH]c(=O)n(CCC(=O)NCC(N)=O)c(=O)n2Cc2ccc(Cl)cc2)cc1F [I-440] | 55
13 | CC(C)n1c(=O)nc(Nc2cccc(C(F)(F)F)c2)n(Cc2ccc(F)cc2)c1=O [I-126] | 689
14 | Cc1ccc(Cn2c(Nc3ccc4[nH]ccc4c3)nc(=O)n(C(C)C)c2=O)cc1 [I-123] | 815
15 | CCOc1ccc(/N=c2\[nH]c(=O)n(C[C@@H](C)C(=O)O)c(=O)n2Cc2ccc(Cl)cc2)cc1Cl [I-487] | 27
16 | CC(C)(Cn1c(=O)[nH]/c(=N\c2cccc(OC(F)(F)F)c2)n(Cc2ccc(Cl)cc2)c1=O)C(=O)O [I-469] | 101
17 | CCn1ccc2cc(/N=c3\[nH]c(=O)n(CC(C)(C)C(=O)O)c(=O)n3Cc3ccc(Cl)cc3)ccc21 [I-493] | 952
18 | CCOc1ccc(/N=c2\[nH]c(=O)n(C[C@H](C)C(=O)O)c(=O)n2Cc2ccc(Cl)cc2)cc1C [I-536] | 46
19 | COC(=O)c1cccc(Cn2c(=O)[nH]/c(=N\c3ccc(OC(C)C)c(F)c3)n(Cc3ccc(Cl)cc3)c2=O)c1 [I-450] | 36
20 | COC(=O)[C@H](C)Cn1c(=O)[nH]/c(=N\c2ccc(OC(C)C)c(F)c2)n(Cc2ccc(Cl)cc2)c1=O [I-452] | 3
21 | Cc1cc2cc(/N=c3\[nH]c(=O)[nH]c(=O)n3Cc3ccc(Cl)cc3)ccc2o1 [I-501] | 191
22 | C=CCn1c(=O)nc(Nc2ccc(OC(C)C)c(F)c2)n(Cc2ccc(Cl)cc2)c1=O [I-346] | 16
23 | O=c1nc(Nc2ccc(OC(F)F)cc2)n(Cc2ccc(Cl)cc2)c(=O)n1CCCO [I-360] | 148
24 | CC(C)Oc1ccc(/N=c2\[nH]c(=O)n(CC(C)(C)C(=O)O)c(=O)n2Cc2ccc(Cl)cc2)cc1 [I-541] | 58
25 | CC(C)Oc1ccc(/N=c2\[nH]c(=O)n(CCCC(=O)O)c(=O)n2Cc2ccc(Cl)cc2)cc1Cl [I-500] | 13
26 | CC(C)Oc1ccc(Nc2nc(=O)n(C(F)F)c(=O)n2Cc2ccc(Cl)cc2)cc1F [I-310] | 389

Row | SMILES | IC50 [nM]
27 | CCOC(=O)CCn1c(=O)nc(Nc2ccc(OC(C)C)c(F)c2)n(Cc2ccc(Cl)cc2)c1=O [I-356] | 12
28 | CC(C)Oc1ccc(/N=c2\n(C)c(=O)n(CCOC3CCCCO3)c(=O)n2Cc2ccc(Cl)cc2)cc1F (stereo not drawn) [I-546] | 459
29 | COC(=O)[C@H](C)Cn1c(=O)[nH]/c(=N\c2ccc(OC(C)C)cc2)n(Cc2ccc(Cl)cc2)c1=O [I-479] | 7
30 | CC(C)Oc1ccc(Nc2nc(=O)n(CC(CO)CO)c(=O)n2Cc2ccc(Cl)cc2)cc1F [I-276] | 12
31 | CC(C)Oc1ccc(/N=c2\[nH]c(=O)n(C[C@H](C)C(=O)O)c(=O)n2CC2CCCCC2)cc1Cl [I-552] | 23
32 | CC(C)n1c(=O)nc(Nc2cccc(OC(F)(F)F)c2)n(Cc2ccc(F)cc2)c1=O [I-181] | 985
33 | COc1cc(Cl)ccc1Cn1c(Nc2ccc(OC(C)C)c(F)c2)nc(=O)n(C(C)C)c1=O [I-270] | 271
34 | CCOc1ccc(/N=c2\[nH]c(=O)n(C[C@H](C)C(=O)O)c(=O)n2Cc2ccc(Cl)cc2)cc1 [I-535] | 52
35 | COC(=O)C[C@@H](C)n1c(=O)[nH]/c(=N\c2ccc(OC(C)C)c(C)c2)n(Cc2ccc(Cl)cc2)c1=O [I-557] | 19
36 | CC(C)Oc1ccc(/N=c2\[nH]c(=O)n([C@H](C)CC(=O)O)c(=O)n2Cc2ccc(Cl)cc2)cc1F [I-562] | 27
37 | CC(C)Oc1ccc(/N=c2\[nH]c(=O)n(CCC(C)(C)C(=O)OCc3ccccc3)c(=O)n2Cc2ccc(Cl)cc2)cc1F [I-406] | 30
38 | CCOc1ccc(Nc2nc(=O)n(C[C@H](C)C(=O)OC)c(=O)n2Cc2ccc(Cl)cc2)cc1Cl [I-533] | 10
39 | Cc1ccc(Cn2c(=O)n(CC(=O)NCC(=O)O)c(=O)[nH]/c2=N\c2ccc(OC(C)C)c(F)c2)cc1 [I-416] | 35
40 | Cc1ccc(Cn2c(Nc3cccc(Cl)c3)nc(=O)n(C(C)C)c2=O)cc1 [I-117] | 387
41 | O=c1nc(Nc2ccc(N3CCCCC3)cc2)n(Cc2ccc(Cl)cc2)c(=O)n1CCO [I-311] | 142
42 | O=c1nc(Nc2ccc(-c3ccon3)cc2)n(Cc2ccc(Cl)cc2)c(=O)n1CCN1CCOCC1 [I-287] | 222
43 | CC(C)Oc1ccc(Nc2nc(=O)n(CCN3CCCCC3)c(=O)n2Cc2ccc(Cl)cc2)cc1F [I-282] | 27
44 | COC(=O)[C@H](C)Cn1c(=O)[nH]/c(=N\c2ccc3oc(C)cc3c2)n(Cc2ccc(Cl)cc2)c1=O [I-558] | 5
45 | CCn1c(=O)nc(Nc2ccc(Oc3ccccc3)cc2)n(Cc2ccc(F)cc2)c1=O [I-141] | 685
46 | CCOc1ccc(Nc2nc(=O)n(CCO)c(=O)n2Cc2ccc(Cl)cc2)cc1F [I-312] | 104
47 | Cc1ccc(Cn2c(=O)n(CC(=O)NC(C)(C)C(=O)O)c(=O)[nH]/c2=N\c2ccc(OC(C)C)c(F)c2)cc1 [I-415] | 314
48 | CC(C)n1c(=O)nc(Nc2ccc(C(=O)NC3CC3)cc2)n(Cc2ccc(Cl)cc2)c1=O [I-257] | 682
49 | CCCCn1c(=O)nc(Nc2cccc(C(F)(F)F)c2)n(Cc2ccc(C)cc2)c1=O [I-029] | 595
50 | CC(C)Oc1ccc(/N=c2\[nH]c(=O)n(CCC(C)(C)C(=O)O)c(=O)n2Cc2ccc(Cl)cc2)cc1F [I-420] | 53
51 | CC(C)Oc1ccc(Nc2nc(=O)n(C(C)C)c(=O)n2Cc2ccc(Cl)cc2)cc1C#N [I-245] | 168
52 | Cc1ccc(Cn2c(=O)n(CCCC(=O)O)c(=O)[nH]/c2=N\c2ccc(OC(C)C)c(Cl)c2)cc1 [I-519] | 12

Row | SMILES | IC50 [nM]
53 | CSc1cccc(/N=c2\[nH]c(=O)n(CC(C)(C)C(=O)O)c(=O)n2Cc2ccc(Cl)cc2)c1 [I-510] | 98
54 | CCOC(=O)CCn1c(=O)nc(Nc2ccc(OC(C)C)c(Cl)c2)n(CC2CCCCC2)c1=O [I-380] | 34
55 | CC(C)Oc1ccc(Nc2nc(=O)n(C(CO)CO)c(=O)n2Cc2ccc(Cl)cc2)cc1F [I-286] | 277
56 | CCOC(=O)CCCn1c(=O)[nH]/c(=N\c2ccc3oc(C)cc3c2)n(Cc2ccc(Cl)cc2)c1=O [I-504] | 15
57 | CCCOc1ccc(Nc2nc(=O)n(CCO)c(=O)n2Cc2ccc(Cl)cc2)cc1F [I-321] | 33
58 | COC(=O)C(C)(C)Cn1c(=O)[nH]/c(=N\c2ccc(CN(C)C)c(Cl)c2)n(Cc2ccc(Cl)cc2)c1=O [I-490] | 46
59 | CC(C)Oc1ccc(Nc2nc(=O)n(C(C)C)c(=O)n2Cc2ccc(F)cc2)cc1Cl [I-203] | 110
60 | COC(=O)c1ccc(Cn2c(=O)[nH]/c(=N\c3ccc(OC(C)C)c(F)c3)n(Cc3ccc(Cl)cc3)c2=O)cc1 [I-444] | 17
61 | CC(C)Oc1ccc(/N=c2\[nH]c(OCC(=O)O)nc(=O)n2Cc2ccc(Cl)cc2)cc1Cl [II-009] | 34
62 | Cc1ccc(Cn2c(Nc3ccc(OC(C)C)cc3)nc(=O)n(C(C)C)c2=O)cc1F [I-217] | 268
63 | Cc1ccc(/N=c2\[nH]c(=O)n(CC(C)(C)C(=O)O)c(=O)n2Cc2ccc(Cl)cc2)cc1C [I-464] | 564
64 | O=c1nc(Nc2ccc(F)c(F)c2)n(Cc2ccc(Cl)cc2)c(=O)n1CCO [I-316] | 712
65 | COC(=O)C(C)(C)Cn1c(=O)[nH]/c(=N\c2ccc(OC)c(C)c2)n(Cc2ccc(Cl)cc2)c1=O [I-442] | 117
66 | CCOC(=O)COc1ccc(Nc2nc(=O)n(C(C)C)c(=O)n2Cc2ccc(Cl)cc2)cc1Cl [I-241] | 447
67 | O=c1nc(Nc2ccc(Cl)c(Cl)c2)n(Cc2ccc(Cl)cc2)c(=O)n1CCO [I-373] | 185
68 | CC(C)Oc1ccc(/N=c2\[nH]c(=O)n([C@@H](C)CC(=O)O)c(=O)n2Cc2ccc(Cl)cc2)cc1Cl [I-526] | 24
69 | CC(Nc1nc(=O)n(C(C)C)c(=O)n1Cc1ccc(F)cc1)c1ccc(Cl)cc1 (stereo not drawn) [I-223] | 909
70 | COC(=O)C(C)(C)Cn1c(=O)[nH]/c(=N\c2ccc3oc(C)nc3c2)n(Cc2ccc(Cl)cc2)c1=O [I-488] | 124
71 | CCOC(=O)c1ccccc1Cn1c(=O)[nH]/c(=N\c2ccc(OC(C)C)c(F)c2)n(Cc2ccc(Cl)cc2)c1=O [I-454] | 24
72 | CC(C)(Cn1c(=O)[nH]/c(=N\c2ccc(Cl)c(Cl)c2)n(Cc2ccc(Cl)cc2)c1=O)C(=O)O [I-477] | 56
73 | CC(C)n1c(=O)nc(Nc2ccc(C(=O)Nc3ccccc3)cc2)n(Cc2ccc(Cl)cc2)c1=O [I-266] | 861
74 | COC(=O)[C@@H](C)Cn1c(=O)nc(Nc2ccc(OC(C)C)c(C)c2)n(Cc2ccc(Cl)cc2)c1=O [I-531] | 10
75 | CCN(CC)c1nc(=O)n(Cc2ccc(Cl)cc2)/c(=N/c2ccc(OC(C)C)c(Cl)c2)[nH]1 [II-013] | 430
76 | CC(C)n1c(=O)nc(Nc2cccc(C(F)(F)F)c2)n(Cc2ccc(Cl)cn2)c1=O [I-162] | 379
77 | CC(C)Oc1ccc(Nc2nc(=O)n(CC3CC3)c(=O)n2Cc2ccc(Cl)cc2)cc1F [I-271] | 32
78 | COC(=O)C[C@H](C)n1c(=O)[nH]/c(=N\c2ccc(OC(C)C)c(F)c2)n(Cc2ccc(Cl)cc2)c1=O [I-523] | 72
